Patent US20140259191A1, “FISH ANESTHETIC AND METHOD” (AQUA-MOR TECHNOLOGIES LTD., priority 2011, published 2014)

Assays:
goldfish = experiment: Anesthesia of goldfish by linalool or Ho Wood oil added to tank water; format: in vivo, Carassius auratus auratus
Protocol: (§1) A one year old koi fish of body length 11 cm and which appeared to be healthy was placed in a 4 liter tank containing water at 25° C. and in which the water was circulated by means of aeration. A liquid a mixture containing 1 wt. % synthetic linalool (1 wt. % linalool, 5 wt. % 14R, 2 wt. % AF80 and 92 wt. % water) was added to the tank and manually mixed with the water so that the concentration of linalool in the water was 50 ppm. This was regarding as the starting time of the experiment; thereafter, observations were made regularly to determine the behavior of the fish in water. This continued until no response to external stimulation and complete loss of equilibrium were observed, at which point the fish was transferred to a recovery tank containing fresh water. The fish was placed near the air pump, and the time until the fish again swam and responded normally to external stimulation was recorded.
(§2) The experiment of Example 1 was repeated, using a one year old goldfish of 8.5 cm body length. […] At 9.5 minutes the fish was removed to a recovery tank with clean water. Thereafter it recovered slowly and after 35 minutes was swimming around in the tank and appeared to have resumed normal activity.
as §2, with “length, and adding the linalool formulation to a linalool concentration in the water of 75 ppm instead of 50 ppm. After 2 minutes of exposure to linalool the fish appeared to be in stress.” for “length.”, “20” for “9.5”, “activity. […]” for “activity.”
This example illustrates the effects of Linalool on Goldfish (cold water fish). The experiment was performed in a four liter tank with three 10-month old goldfish of respective weights 32 g, 30 g and 34 g and respective body lengths of 12.5 cm, 11.5 cm and 11 cm. The water temperature was 16° C. and the pH was 7. A formulation containing 1% Linalool was added to the water to a concentration of 50 ppm linalool in the water. The fish became relaxed 5 minutes after introduction of the linalool, and after 6 5 minutes there fish were completely anesthetized. After 20 minutes of exposure to linalool, the fish were removed to a recovery tank with fresh water. 15 minutes thereafter the fish had resumed normal behavior. […]
The experiment of Example 1 was repeated, using two one-year old goldfish of respective body lengths 8.5 and 7.5 cm and respective weights of 17 and 15 g, and adding the a natural source of linalool (Ho Wood oil) to a concentration of 75 ppm linalool instead of 50 ppm. […] At 4 minutes the fish were removed to a recovery tank with clean water. After 5 minutes in the recovery tank they swam around and appeared to have resumed normal activity.
The experiment of Example 21 was repeated, using two one-year old goldfish of respective body lengths 9 and 8 cm and respective weights 19 and 17.5 g, but adding Ho Wood oil to a linalool concentration of 50 ppm in the water. […] At 16.5 minutes the fish were removed to a recovery tank with clean water. After 4 minutes in the recovery tank they swam around and appeared to have resumed normal activity.

Koi fish = experiment: Anesthesia of Koi fish by linalool added to tank water; format: in vivo
Protocol: as §1
(§3) The experiment of Example 1 was repeated, using a one year old Koi fish of 12 cm body length, and adding the linalool formulation to a linalool concentration in the water of 75 ppm instead of 50 ppm. After 2 minutes of exposure to linalool the fish appeared to be in slight stress. […] At 20 minutes the fish was removed to a recovery tank with clean water. Thereafter it recovered slowly and after 40 minutes was swimming around in the tank and appeared to have resumed normal activity.
as §3, with “12.5” for “12”, “100” for “75”, “ppm.” for “ppm. After 2 minutes of exposure to linalool the fish appeared to be in slight stress.”, “6” for “20”, “30” for “40”
To a four liter tank containing three one-year old Koi fish of respective weights 30 g, 29 g and 31 g and respective body lengths 11 cm, 12 cm and 12.5 cm in water at 21° C. and pH 7 was added a formulation containing 1% linalool. The formulation was added to the water to a linalool concentration of 50 ppm in the water. The fish became relaxed 6 minutes after addition of linalool and after 9 minutes were completely anesthetized. At 9 5 minutes the fish were removed to a recovery tank with fresh water. After 40 minutes in the recovery tank the fish resumed normal behavior.

fish = experiment: Exposure of fish to linalool at different concentrations and times (survival, anesthesia); format: in vivo
Text: As will be appreciated by persons skilled in the art, for a given type of aquatic organism of a given size, there is an inverse (though not necessarily linear) relationship between the concentration of linalool in the water and the amount of time the organism needs to be exposed to the linalool in order to achieve sedation or anesthetization, and similarly there is an inverse (though not necessarily linear) relationship between the linalool concentration and the amount of time an organism may be exposed to the linalool in order before death occurs. […] On the other hand, the same fish were unaffected by exposure to 25 ppm linalool, even for long periods of time.

[1] = Example 4: goldfish 8.5 cm, 50 ppm linalool in water
[2] = Example 5: goldfish 8.5 cm, 75 ppm linalool in water
[3] = Example 6: goldfish 8 cm, 100 ppm linalool in water
[4] = Example 11: three goldfish 25-27.5 g, 100 ppm linalool
[5] = Example 1: Koi 11 cm, 50 ppm linalool in water, 25° C.
[6] = Example 2: Koi 12 cm, 75 ppm linalool in water
[7] = Example 3: Koi 12.5 cm, 100 ppm linalool in water
[8] = Example 18: three Koi 29-31 g, 50 ppm linalool, 21° C., pH 7

In the case of `C=CC(C)(O)CCC=C(C)C` (centres unmarked) [linalool], the “time of exposure until complete loss of equilibrium” value (goldfish; [1]) is reported as 6.5 min, the “time of exposure until no response to external stimulation” value (“time of exposure until no response” for short) (goldfish; [1]) is reported as 9 min and the “time of exposure until partial loss of equilibrium” value (goldfish; [1]) is reported as 5 min. For the same compound, the “time in recovery tank until normal activity resumed” value (goldfish; Example 4: goldfish 8.5 cm, 50 ppm linalool, removed to clean water at 9.5 minutes) was 35 min, the “time of exposure until complete loss of equilibrium” value (goldfish; [2]) was 5 min and the “time of exposure until no response” value (goldfish; [2]) was 9 min. For the same compound, the “time of exposure until partial loss of equilibrium” value (goldfish; [2]) was 2.5 min, the “time in recovery tank until normal activity resumed” value (goldfish; Example 5: goldfish 8.5 cm, 75 ppm linalool, removed to clean water at 20 minutes) was 35 min and the “time of exposure until complete loss of equilibrium” value (goldfish; [3]) was 2 min. For the same compound, the “time of exposure until no response” value (goldfish; [3]) was 3.5 min, the “time of exposure until partial loss of equilibrium” value (goldfish; [3]) was 1.5 min and the “time in recovery tank until normal activity resumed” value (goldfish; Example 6: goldfish 8 cm, 100 ppm linalool, removed to clean water at 4 minutes) was 35 min. The “mortality during a further three days of observation” value (goldfish; Example 7: three goldfish, average 12.5 cm, experiment of Example 1 repeated) was “no mortality occurred”, the “time in recovery tank until normal behavior resumed” value (goldfish; Example 9: goldfish, 50 ppm linalool, 16° C., removed after 20 minutes of exposure) was 15 min and the “time after introduction of linalool until fish became relaxed” value (goldfish; Example 9: three goldfish 30-34 g, 50 ppm linalool, 16° C., pH 7) was 5 min. For the same compound, the “time in recovery tank until normal behavior resumed” value (goldfish; Example 10: goldfish, 75 ppm linalool, 16° C., removed at 20 minutes) was 35 min, the “time until fish completely anesthetized” value (goldfish; Example 10: three goldfish 25-27 g, 75 ppm linalool, 16° C., pH 7) was 5 min and the “time in recovery tank until normal behavior resumed” value (goldfish; Example 11: goldfish, 100 ppm linalool, removed at 4 minutes) was 20 min. For the same compound, the “time after addition of linalool until fish became relaxed” value (goldfish; [4]) was 1.5 min, the “time until fish completely anesthetized” value (goldfish; [4]) was 2 min and the “time of exposure until complete loss of equilibrium” value (Koi fish; [5]) was 6.5 min. The “time of exposure until fish swam on its back” value (Koi fish; [5]) was 8 min, the “time of exposure until no response” value (Koi fish; [5]) was 9 min and the “time of exposure until partial loss of equilibrium” value (Koi fish; [5]) was 5.5 min. The “time of exposure until slight stress” value (Koi fish; [5]) was 2.5 min, the “time in recovery tank until normal activity resumed” value (Koi fish; Example 1: Koi 11 cm, 50 ppm linalool, removed to clean water at 9.5 minutes) was 45 min and the “time of exposure until complete loss of equilibrium” value (Koi fish; [6]) was 7 min. The “time of exposure until no response” value (Koi fish; [6]) was 9 min, the “time of exposure until slight stress” value (Koi fish; [6]) was 2 min and the “time in recovery tank until normal activity resumed” value (Koi fish; Example 2: Koi 12 cm, 75 ppm linalool, removed to clean water at 20 minutes) was 40 min. For the same compound, the “time of exposure until complete loss of equilibrium” value (Koi fish; [7]) was 4 min, the “time of exposure until no response” value (Koi fish; [7]) was 5.5 min and the “time of exposure until partial loss of equilibrium” value (Koi fish; [7]) was 2.5 min. The “time in recovery tank until normal activity resumed” value (Koi fish; Example 3: Koi 12.5 cm, 100 ppm linalool, removed to clean water at 6 minutes) was 30 min, the “time in recovery tank until normal behavior resumed” value (Koi fish; Example 18: Koi, 50 ppm linalool, 21° C., removed at 9 5 minutes) was 40 min and the “time after addition of linalool until fish became relaxed” value (Koi fish; [8]) was 6 min. The “time until fish completely anesthetized” value (Koi fish; [8]) was 9 min, the effect of exposure (fish; fish exposed to 25 ppm linalool, even for long periods of time) was “unaffected” and the survival (fish; fish left for 40 minutes in 100 ppm linalool) was “did not survive”. The survival (fish; fish left for 50 minutes in 75 ppm linalool) was “did not survive” and the anesthesia (fish; fish left for five minutes in 100 ppm linalool) was “effectively anesthetized”.
